Test results as given in US8758731B2, “Skin lightening by topical application of 1-hydroxyl 3,5-bis(4′hydroxyl styryl)benzene” (Johnson & Johnson Consumer Companies, Inc., priority 2012, dated 2014).
Several values for one entry are separate records, joined by “and”; a condition that tells them apart may be missing. Equal values may be shown once.

Assays:
Mushroom tyrosinase = assay: Tyrosinase inhibition test (mushroom tyrosinase, L-dopa, OD 492 nm); assay type: biochemical; details: 10 mM L-dopa, 37° C., 30 min, duplicate
Method: Ultraviolet (UV) radiation from the sun is the most important external stimulus for melanin formation leading to skin darkening. Reducing melanin formation in the skin may be achieved by inhibiting multiple steps of the melanin biogenesis process. Tyrosinase is the key regulatory enzyme of melanogenesis. Agents that inhibit tyrosinase will reduce melanin synthesis.
1-Hydroxyl 3,5-bis(4′hydroxyl styryl)benzene (0.0001, 0.001, and 0.01% w/v) was tested for tyrosinase inhibition as follows.
Mushroom tyrosinase samples (Sigma, T7755, 10 U/reaction) were treated with the samples of 1-hydroxyl 3,5-bis(4′hydroxyl styryl)benzene and control samples. Reaction was initiated by addition of 10 mM L-dopa (Research Organics, #2111D) at 37° C. Tyrosinase activity was measured by recording light absorption (optical density) at 492 nm after 30 min for both control samples (no exposure to test compound) and test samples that were exposed to the test compound.
Percent Inhibition of Tyrosinase was related to the reduction in absorption at 492 nm (relative to the control) by the following formula: Percent Inhibition of Tyrosinase=[Tcontrol−Tsample/Tcontrol)]*100 where Tcontrol is the tyrosinase activity of the control and Tsample is the tyrosinase activity in the presence of test compound. Samples were tested in duplicate and Percent Inhibition of Tyrosinase was averaged and standard deviation was reported.

[1] = tested on: murine melanoma B16(F10) cells; assay: Inhibition of UV-induced Melanogenesis test; assay type: cell-based; details: for Percent inhibition of UV-induced melanogenesis (mean ± SD): B16(F10), UVB 200 mJ/cm^2, 24 h post UVB
Method: One or more samples of B16(F10) cells were prepared and each pre-treated with a test sample followed by UVB exposure as described below. Upon treatment, UVB stimulated melanogenesis in the cells and test compounds were evaluated based on their ability to inhibit or slow down the rate of melanogenesis. The cells were lysed for protein measurement at 595 nm and melanin content at 470 nm. The potency of the test compounds were determined by comparing the % inhibition achieved by the test compounds against the treated control.
On a first day, murine melanoma B16(F10) cells were seeded in 60 mm plates with a density of ˜1 million cells per plate and incubated for […] at 37° C., 5% CO2. On day 2, the cells with a confluency rate of 90-100% were treated with test compound at a predetermined concentration (e.g. 25 mg/mL) for two hours (for test compound samples only) followed by exposure to UVB 200 mJ/cm^2 (for test samples and treated control). The cells were harvested on day 3 (24 h post UVB irradiation for test samples and treated control) and lysed in protein lysis buffer (50 mM Tris, pH 8, 2 mM EDTA, 150 mM NaCl, and 1% TRITON X 100—a nonionic surfactant purchased from BioRad Cat.#: 161-0407), and centrifuged.
The resulting supernatant was mixed well with a protein dye assay (Bio-rad protein assay reagent) and a spectrophotometer (Molecular Devices VERSAmax) was used to determine the optical density (OD) of the sample at 595 nm, which was recorded as the “protein assay OD.” The cell pellet remaining after removal of the supernatant was dissolved in alkaline DMSO buffer, and the resulting solution was similarly tested using a spectrophotometer for melanin absorbance assay at 470 nm. The absorbance was recorded as the “melanin assay OD.”
Control samples of B16(F10) murine melanoma cells were prepared and harvested as indicated above, but without addition of any test sample and without exposure to UVB (untreated control). Other samples were prepared and harvested as indicated above, but without addition of test sample and exposed to UVB as described below (treated control).
Three samples each of the untreated control, treated control, and each test sample were made and the Melanin OD and Protein OD measured for each. The normalized melanin for each untreated control (3 samples), treated control (3 samples) and test sample (3 samples for each test compound) was calculated via the following equation: Normalized Melanin=melanin assay OD/protein assay OD. The averages of the Normalized Melanin of the untreated controls and treated controls were calculated (sum of the three calculated values/3).
The Induction value of the Control (which can be thought of as the UV-induced increase in melanin, without the benefit of any test sample to reduce melanogensis) was determined by subtracting the average Normalized Melanin of untreated control from the average Normalized Melanin of treated control. Similarly, the Induction value of each test sample (which can be thought of as the amount of additional melanin over and above the baseline of the sample not treated with UV) was then calculated by subtracting average Normalized Melanin of untreated control from the Normalized Melanin of the test sample. The Percent Inhibition for each test sample was then calculated via the equation: Percent Inhibition=100×[(Induction value of Control−Induction value with Test Sample)/Induction value of Control].
The average Percent Inhibition was calculated as the sum of the three resulting Inhibition % values for each test sample divided by three.

[2] = tested on: MelanoDerm skin epidermal equivalent tissues (NHEK and NHM); assay: Inhibition of pigmentation in skin epidermal equivalent tissues (MatTek MelanoDerm MEL-300-B); assay type: cell-based, human; details: measured day 9, vs vehicle-treated control
Method: Skin epidermal equivalent tissues obtained from MatTek's MelanoDerm™ System were used as follows. MatTek's MelanoDerm™ System consists of normal, human-derived epidermal keratinocytes (NHEK) and melanocytes (NHM) which have been cultured to form a multilayered, highly differentiated model of the human epidermis. Specifically, MEL-300-B tissues, each 9 mm in diameter were used in the following tests.
1-Hydroxyl 3,5-bis(4′hydroxyl styryl)benzene and its piperazine salt were prepared in an appropriate vehicle and applied topically to the skin model daily. The experiment lasted for eight days. Measurement was taken on day 9.
The Degree of Lightness for each skin model tissue (L-Value) was measured using a spectrophotometer (Konica Minolta CM-2600d). The ΔL (degree of lightness as compared to vehicle-treated control) for each test sample was calculated using following formula: ΔL=L-value of treated sample−L-value of control sample

[3] = tested on: murine melanoma B16(F10) cells; assay: Inhibition of UV-induced Melanogenesis test; assay type: cell-based; details: 0.0001%; average of S1 and S2
[4] = 0.5% topically daily for eight days

Compound	Percent Inhibition of Tyrosinase activity (mean ± standard deviation) (Mushroom tyrosinase; 0.0001% w/v test compound) [%]	Percent Inhibition of Tyrosinase activity (mean ± standard deviation) (Mushroom tyrosinase; 0.001% w/v test compound) [%]	Percent Inhibition of Tyrosinase activity (mean ± standard deviation) (Mushroom tyrosinase; 0.01% w/v test compound) [%]	Percent inhibition of UV-induced melanogenesis (mean ± SD) ([1]; 0.00001% test compound) [%]	Percent inhibition of UV-induced melanogenesis (mean ± SD) ([1]; 0.00005% test compound) [%]	Percent inhibition of UV-induced melanogenesis (mean ± SD) ([1]; 0.0001% test compound) [%]	Degree of Lightness (ΔL) ([2]; 0.1% topically daily for eight days)	Degree of Lightness (ΔL) ([2]; 0.25% topically daily for eight days)	Degree of Lightness (ΔL) [2, 4]	Percent Inhibition for Test sample (Ave) [3]	Induction value with Test sample ([1]; 0.0001%, single test samples S1, S2, Normalized Melanin minus untreated control 0.122, listed as 1-hydroxyl 3,5-bis(4′hydroxyl styryl)benzene—Free Phenol)	Normalized Melanin value (melanin assay OD/protein assay OD) ([1]; 0.0001%, single test samples S1, S2, listed as 1-hydroxyl 3,5-bis(4′hydroxyl styryl)benzene—Free Phenol)
1-hydroxyl 3,5-bis(4′hydroxyl styryl)benzene - Piperazine salt	2.03 ± 3.94	11.52 ± 3.16	16.64 ± 2.76	13.93 ± 11.33	33.52 ± 1.54	55.70 ± 4.44	1.46 ± 0.71	2.83 ± 0.41	4.60 ± 0.61			
Oc1ccc(/C=C/c2cc(O)cc(/C=C/c3ccc(O)cc3)c2)cc1 [1-Hydroxyl 3,5-bis(4′hydroxylstyryl)benzene]	3.3 ± 1.95	8.21 ± 1.27	11.84 ± 3.22	18.93 ± 5.92	33.27 ± 4.39	40.49 ± 2.04			4.23 ± 0.64	Ave = (39.05 + 41.93)/2 = 40.49%	0.19 − 0.122 = 0.068 and 0.187 − 0.122 = 0.065	0.19 (S1) and 0.187 (S2)
